These results are taken from ChEMBL document CHEMBL4725402, “Discovery of thiapyran-pyrimidine derivatives as potential EGFR inhibitors” (Bioorg Med Chem, 2020).

Data set [1] addresses Serine/threonine-protein kinase mTOR (Homo sapiens) (UniProt P42345). The data set can be described thus: Inhibition of mTOR (unknown origin) at 1 uM relative to control.
Data set [2] has as its system A549. Nature of the data set: Cell cycle arrest in human A549 cells assessed as accumulation at S phase at 10 uM incubated for 48 hrs […] staining based flow cytometric analysis (reference value: 22.64 %). Format: functional.
Data set [3] has as its system NCI-H1975. The data set can be described thus: Induction of apoptosis in human H1975 cells assessed as early apoptotic cells at 1 uM incubated for 48 hrs Annexin V-FITC staining based flow cytometric analysis (reference value: 2.06 %). Format: functional. On the technique in general: A flow cytometer gives signals particle by particle.
For data set [4], the system named is NCI-H1975. Nature of the data set: Induction of apoptosis in human H1975 cells assessed as live cells at 10 uM incubated for 48 hrs Annexin V-FITC staining based flow cytometric analysis (reference value: 96.09 %). The class given is functional.
Data set [5] can be described thus: Selectivity index, ratio of IC50 for human L02 cells to IC50 for human A549 cells assessed as reduction in cell viability measured after 72 hrs by MTT assay. Particulars: L02 cells versus A549 cells, read-out: Ratio IC50. The class given is toxicity. A general note: Tetrazolium assays rely on reduction of a dye to a coloured formazan, in cell work by metabolically active cells.

Data set [6] has as its system NCI-H1975. Nature of the data set: Induction of apoptosis in human H1975 cells assessed as necrotic cells at 10 uM incubated for 48 hrs Annexin V-FITC staining based flow cytometric analysis (reference value: 0.08 %). The class given is functional.
For data set [7], the system named is NCI-H1975. The data set can be described thus: Induction of morphological changes in human H1975 cells assessed as chromatin shrinkage and apoptotic body formation at 0.01 to 0.10 uM incubated for 6 hrs by AO staining-based fluorescent microscopic analysis. The class given is functional, cell-based. The note with it: dose microM 0.01-0.10, time 6.0 hrs.
Data set [8] has as its system NCI-H1975. Nature of the data set: Induction of morphological changes in human H1975 cells assessed as chromatin agglutination in nucleus at 0.01 to 0.10 uM incubated for 6 hrs by Hoechst33258 staining-based fluorescent microscopic analysis. The class given is functional, cell-based. Particulars: dose microM 0.01-0.10, time 6.0 hrs.
The test system of another data set is HeLa. Nature of the data set: Antiproliferation activity against human HeLa cells assessed as reduction in cell viability measured after 72 hrs by MTT assay. Format: functional, cell-based.
In data set [9] the test system is NCI-H1975. The data set can be described thus: Induction of morphological changes in human H1975 cells assessed as dense nuclei staining at 0.01 to 0.10 uM incubated for 6 hrs by Hoechst 33258 staining-based fluorescent microscopic analysis. The note with it: dose microM 0.01-0.10, time 6.0 hrs. The class given is functional, cell-based.
The species entered for another data set is Homo sapiens. The data set can be described thus: Inhibition of PI3K (unknown origin) at 1 uM relative to control.
In data set [10] the target is Hepatocyte growth factor receptor (Homo sapiens) (UniProt P08581). Nature of the data set: Inhibition of C-MET (unknown origin) at 1 uM relative to control.
Sequence of Hepatocyte growth factor receptor (Homo sapiens) (P08581 whole entry): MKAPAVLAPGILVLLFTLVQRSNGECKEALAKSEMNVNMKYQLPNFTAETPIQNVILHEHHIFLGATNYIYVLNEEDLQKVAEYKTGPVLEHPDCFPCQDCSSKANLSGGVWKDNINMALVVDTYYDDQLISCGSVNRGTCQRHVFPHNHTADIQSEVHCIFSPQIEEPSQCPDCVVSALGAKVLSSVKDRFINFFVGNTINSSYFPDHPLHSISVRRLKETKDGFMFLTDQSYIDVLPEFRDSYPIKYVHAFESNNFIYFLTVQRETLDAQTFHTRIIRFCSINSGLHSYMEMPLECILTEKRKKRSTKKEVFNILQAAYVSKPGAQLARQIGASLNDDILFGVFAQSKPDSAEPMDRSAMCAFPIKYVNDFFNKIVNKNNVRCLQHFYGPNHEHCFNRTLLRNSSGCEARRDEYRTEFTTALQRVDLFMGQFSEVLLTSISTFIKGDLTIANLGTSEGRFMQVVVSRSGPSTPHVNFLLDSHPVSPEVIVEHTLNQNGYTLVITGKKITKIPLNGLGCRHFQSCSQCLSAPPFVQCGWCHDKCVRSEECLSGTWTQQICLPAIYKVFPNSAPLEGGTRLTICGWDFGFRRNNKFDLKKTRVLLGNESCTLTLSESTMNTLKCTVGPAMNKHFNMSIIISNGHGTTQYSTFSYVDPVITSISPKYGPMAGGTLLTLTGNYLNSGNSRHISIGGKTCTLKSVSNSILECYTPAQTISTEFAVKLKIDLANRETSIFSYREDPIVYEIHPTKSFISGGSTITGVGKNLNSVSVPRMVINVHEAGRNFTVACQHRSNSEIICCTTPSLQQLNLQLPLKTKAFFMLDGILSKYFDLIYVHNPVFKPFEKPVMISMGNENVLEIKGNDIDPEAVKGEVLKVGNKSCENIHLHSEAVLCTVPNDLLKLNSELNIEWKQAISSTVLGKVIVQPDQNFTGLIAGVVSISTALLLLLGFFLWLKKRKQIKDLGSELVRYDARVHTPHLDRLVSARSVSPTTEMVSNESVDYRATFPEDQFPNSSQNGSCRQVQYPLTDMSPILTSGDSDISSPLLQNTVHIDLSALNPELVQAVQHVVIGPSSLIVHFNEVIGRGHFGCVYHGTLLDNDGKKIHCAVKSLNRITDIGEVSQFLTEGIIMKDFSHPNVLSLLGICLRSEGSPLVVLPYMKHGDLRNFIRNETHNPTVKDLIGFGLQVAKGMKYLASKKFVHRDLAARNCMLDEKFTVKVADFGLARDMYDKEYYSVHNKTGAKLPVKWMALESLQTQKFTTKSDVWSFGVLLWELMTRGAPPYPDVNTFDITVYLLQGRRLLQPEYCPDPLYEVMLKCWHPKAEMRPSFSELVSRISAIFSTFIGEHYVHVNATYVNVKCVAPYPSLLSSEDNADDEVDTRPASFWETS
In data set [11] the test system is A549. The data set can be described thus: Cell cycle arrest in human A549 cells assessed as accumulation at S phase at 1 uM incubated for 48 hrs […] staining based flow cytometric analysis (reference value: 22.64 %). Format: functional.
For the next data set, the system named is MCF7. Nature of the data set: Antiproliferation activity against human MCF7 cells assessed as reduction in cell viability measured after 72 hrs by MTT assay. The class given is functional, cell-based. Particulars: MCF7, 72 h.
Data set [12] relates to A549. The data set can be described thus: Cell cycle arrest in human A549 cells assessed as accumulation at G0/G1 phase at 1 uM incubated for 48 hrs […] staining based flow cytometric analysis (reference value: 74.69 %). Format: functional.
The test system of data set [13] is A549. The data set can be described thus: Cell cycle arrest in human A549 cells assessed as accumulation at G2/M phase at 5 uM incubated for 48 hrs […] staining based flow cytometric analysis (reference value: 2.67 %). Format: functional.
In data set [14] the test system is A549. Nature of the data set: Cell cycle arrest in human A549 cells assessed as accumulation at G2/M phase at 1 uM incubated for 48 hrs […] staining based flow cytometric analysis (reference value: 2.67 %). Format: functional.
The next data set has as its system L02. Nature of the data set: Cytotoxicity against human L02 cells assessed as reduction in cell viability measured after 72 hrs by MTT assay. The note with it: L02, 72 h. Format: cell-based.
Data set [15] relates to A549. Nature of the data set: Cell cycle arrest in human A549 cells assessed as accumulation at S phase at 5 uM incubated for 48 hrs […] staining based flow cytometric analysis (reference value: 22.64 %). The class given is functional.
In data set [16] the test system is NCI-H1975. Nature of the data set: Induction of apoptosis in human H1975 cells assessed as early apoptotic cells at 10 uM incubated for 48 hrs Annexin V-FITC staining based flow cytometric analysis (reference value: 2.06 %). Format: functional.
Data set [17] deals with NCI-H1975. Nature of the data set: Induction of apoptosis in human H1975 cells assessed as late apoptotic cells at 5 uM incubated for 48 hrs Annexin V-FITC staining based flow cytometric analysis (reference value: 1.77 %). The class given is functional.
Data set [18] relates to A549. The data set can be described thus: Cell cycle arrest in human A549 cells assessed as accumulation at G2/M phase at 10 uM incubated for 48 hrs […] staining based flow cytometric analysis (reference value: 2.67 %). The class given is functional.
Data set [19] concerns NCI-H1975. The data set can be described thus: Antiproliferation activity against human NCI-H1975 cells harboring EGFR T790M/L858R mutation assessed as reduction in cell viability measured after 72 hrs by MTT assay. The class given is functional, cell-based. Particulars: NCI-H1975, 72 h.
Data set [20] concerns A549. The data set can be described thus: Cell cycle arrest in human A549 cells assessed as accumulation at G0/G1 phase at 5 uM incubated for 48 hrs […] staining based flow cytometric analysis (reference value: 74.69 %). The class given is functional.
Data set [21] relates to NCI-H1975. The data set can be described thus: Induction of apoptosis in human H1975 cells assessed as late apoptotic cells at 10 uM incubated for 48 hrs Annexin V-FITC staining based flow cytometric analysis (reference value: 1.77 %). The class given is functional.
Data set [22] deals with A549. Nature of the data set: Cell cycle arrest in human A549 cells assessed as accumulation at G2/M phase at 1 to 10 uM incubated for 48 hrs […] staining based flow cytometric analysis. Format: functional. Particulars: dose microM 1-10, time […].
Data set [23] deals with NCI-H1975. Nature of the data set: Induction of apoptosis in human H1975 cells assessed as early apoptotic cells at 5 uM incubated for 48 hrs Annexin V-FITC staining based flow cytometric analysis (reference value: 2.06 %). The class given is functional.
Data set [24] concerns NCI-H1975. The data set can be described thus: Induction of apoptosis in human H1975 cells assessed as live cells at 1 uM incubated for 48 hrs Annexin V-FITC staining based flow cytometric analysis (reference value: 96.09 %). Format: functional.
Data set [25] deals with NCI-H1975. The data set can be described thus: Induction of apoptosis in human H1975 cells assessed as live cells at 5 uM incubated for 48 hrs Annexin V-FITC staining based flow cytometric analysis (reference value: 96.09 %). Format: functional.
In data set [26] the target is Epidermal growth factor receptor (Homo sapiens, UniProt P00533, L858R/T790M). Nature of the data set: Inhibition of EGFR T790M/L858R mutant (unknown origin) using FAM-labelled peptide as substrate incubated for 10 mins in presence of ATP by Kinase Glo luminescence assay. Background: In Kinase-Glo more light means more ATP remaining.
Sequence of Epidermal growth factor receptor (Homo sapiens, UniProt P00533, L858R/T790M) (P00533 25-1210 T790M/L858R limits assumed): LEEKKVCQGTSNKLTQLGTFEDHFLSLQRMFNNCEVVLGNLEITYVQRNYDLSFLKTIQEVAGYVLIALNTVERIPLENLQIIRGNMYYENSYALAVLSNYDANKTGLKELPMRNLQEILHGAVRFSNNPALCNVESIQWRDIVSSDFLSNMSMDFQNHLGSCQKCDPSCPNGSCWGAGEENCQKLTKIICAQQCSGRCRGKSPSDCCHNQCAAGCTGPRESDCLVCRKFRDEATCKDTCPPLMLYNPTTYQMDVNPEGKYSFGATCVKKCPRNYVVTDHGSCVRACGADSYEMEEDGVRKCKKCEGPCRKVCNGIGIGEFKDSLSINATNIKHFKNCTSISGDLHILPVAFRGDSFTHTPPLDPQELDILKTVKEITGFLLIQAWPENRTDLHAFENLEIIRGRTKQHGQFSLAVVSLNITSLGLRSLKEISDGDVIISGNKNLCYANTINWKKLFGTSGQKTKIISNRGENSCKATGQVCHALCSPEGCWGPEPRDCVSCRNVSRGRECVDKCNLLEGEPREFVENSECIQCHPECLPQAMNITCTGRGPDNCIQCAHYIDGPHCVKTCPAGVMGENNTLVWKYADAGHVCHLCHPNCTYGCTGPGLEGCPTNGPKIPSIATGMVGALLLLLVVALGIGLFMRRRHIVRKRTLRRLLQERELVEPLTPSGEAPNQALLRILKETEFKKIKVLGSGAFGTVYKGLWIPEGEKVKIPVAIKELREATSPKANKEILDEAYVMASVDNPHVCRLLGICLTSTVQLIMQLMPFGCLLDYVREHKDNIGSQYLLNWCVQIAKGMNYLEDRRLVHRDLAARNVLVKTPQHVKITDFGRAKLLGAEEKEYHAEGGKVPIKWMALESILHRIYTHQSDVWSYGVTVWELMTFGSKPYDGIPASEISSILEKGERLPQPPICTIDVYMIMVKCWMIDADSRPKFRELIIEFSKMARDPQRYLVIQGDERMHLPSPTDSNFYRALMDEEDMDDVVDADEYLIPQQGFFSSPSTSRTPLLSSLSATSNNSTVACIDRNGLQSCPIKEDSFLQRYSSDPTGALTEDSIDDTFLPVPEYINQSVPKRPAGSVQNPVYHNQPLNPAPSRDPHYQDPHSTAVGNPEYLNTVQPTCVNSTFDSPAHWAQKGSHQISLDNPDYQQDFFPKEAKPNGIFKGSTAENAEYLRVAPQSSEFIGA
The subject of data set [27] is NCI-H1975. The data set can be described thus: Induction of apoptosis in human H1975 cells assessed as late apoptotic cells at 1 uM incubated for 48 hrs Annexin V-FITC staining based flow cytometric analysis (reference value: 1.77 %). The class given is functional.
For data set [28], the system named is A549. Nature of the data set: Cell cycle arrest in human A549 cells assessed as accumulation at G0/G1 phase at 10 uM incubated for 48 hrs […] staining based flow cytometric analysis (reference value: 74.69 %). The class given is functional.
For data set [29], the system named is A549. Nature of the data set: Antiproliferation activity against human A549 cells assessed as reduction in cell viability measured after 72 hrs by MTT assay. Particulars: A549, 72 h. The class given is functional, cell-based.
For data set [30], the system named is NCI-H1975. The data set can be described thus: Induction of apoptosis in human H1975 cells assessed as necrotic cells at 1 uM incubated for 48 hrs Annexin V-FITC staining based flow cytometric analysis (reference value: 0.08 %). Format: functional.
The target of data set [31] is Epidermal growth factor receptor (Homo sapiens, UniProt P00533). Nature of the data set: Inhibition of wild type EGFR (unknown origin) using FAM-labelled peptide as substrate incubated for 10 mins in presence of ATP by Kinase Glo luminescence assay.
Sequence of Epidermal growth factor receptor (Homo sapiens, UniProt P00533) (P00533 whole entry): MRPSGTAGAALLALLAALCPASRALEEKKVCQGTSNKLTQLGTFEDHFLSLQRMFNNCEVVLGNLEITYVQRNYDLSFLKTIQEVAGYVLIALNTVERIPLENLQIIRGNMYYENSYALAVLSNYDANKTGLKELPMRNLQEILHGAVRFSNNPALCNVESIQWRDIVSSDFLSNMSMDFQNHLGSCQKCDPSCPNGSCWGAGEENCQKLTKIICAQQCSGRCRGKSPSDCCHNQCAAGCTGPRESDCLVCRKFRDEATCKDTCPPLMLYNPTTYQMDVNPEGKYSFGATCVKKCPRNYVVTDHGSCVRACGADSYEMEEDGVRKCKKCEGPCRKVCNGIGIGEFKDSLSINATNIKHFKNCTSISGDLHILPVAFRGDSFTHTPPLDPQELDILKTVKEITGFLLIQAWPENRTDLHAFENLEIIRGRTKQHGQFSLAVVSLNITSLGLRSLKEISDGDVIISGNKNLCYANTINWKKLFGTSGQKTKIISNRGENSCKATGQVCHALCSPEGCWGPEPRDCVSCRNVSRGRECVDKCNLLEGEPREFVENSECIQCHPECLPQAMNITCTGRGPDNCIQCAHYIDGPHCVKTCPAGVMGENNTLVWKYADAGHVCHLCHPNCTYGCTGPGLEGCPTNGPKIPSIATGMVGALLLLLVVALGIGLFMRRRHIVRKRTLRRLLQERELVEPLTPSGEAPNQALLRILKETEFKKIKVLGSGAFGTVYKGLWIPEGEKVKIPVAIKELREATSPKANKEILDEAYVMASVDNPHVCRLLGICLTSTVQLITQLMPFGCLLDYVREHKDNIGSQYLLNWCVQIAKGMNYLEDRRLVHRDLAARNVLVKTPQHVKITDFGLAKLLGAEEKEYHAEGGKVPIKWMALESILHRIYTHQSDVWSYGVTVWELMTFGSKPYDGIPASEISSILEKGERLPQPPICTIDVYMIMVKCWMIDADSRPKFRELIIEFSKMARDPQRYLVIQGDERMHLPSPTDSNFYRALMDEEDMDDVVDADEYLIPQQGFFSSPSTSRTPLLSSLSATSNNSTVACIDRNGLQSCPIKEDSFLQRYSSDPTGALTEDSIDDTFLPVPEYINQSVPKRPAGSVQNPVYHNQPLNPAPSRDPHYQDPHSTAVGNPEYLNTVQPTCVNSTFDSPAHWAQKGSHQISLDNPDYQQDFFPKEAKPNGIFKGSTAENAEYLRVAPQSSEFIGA
The subject of data set [32] is NCI-H1975. The data set can be described thus: Induction of apoptosis in human H1975 cells assessed as necrotic cells at 5 uM incubated for 48 hrs Annexin V-FITC staining based flow cytometric analysis (reference value: 0.08 %). The class given is functional.
The target in data set [33] is Vascular endothelial growth factor receptor 2 (Homo sapiens) (UniProt P35968). Nature of the data set: Inhibition of KDR (unknown origin) at 1 uM relative to control.
Sequence of Vascular endothelial growth factor receptor 2 (Homo sapiens) (P35968 whole entry): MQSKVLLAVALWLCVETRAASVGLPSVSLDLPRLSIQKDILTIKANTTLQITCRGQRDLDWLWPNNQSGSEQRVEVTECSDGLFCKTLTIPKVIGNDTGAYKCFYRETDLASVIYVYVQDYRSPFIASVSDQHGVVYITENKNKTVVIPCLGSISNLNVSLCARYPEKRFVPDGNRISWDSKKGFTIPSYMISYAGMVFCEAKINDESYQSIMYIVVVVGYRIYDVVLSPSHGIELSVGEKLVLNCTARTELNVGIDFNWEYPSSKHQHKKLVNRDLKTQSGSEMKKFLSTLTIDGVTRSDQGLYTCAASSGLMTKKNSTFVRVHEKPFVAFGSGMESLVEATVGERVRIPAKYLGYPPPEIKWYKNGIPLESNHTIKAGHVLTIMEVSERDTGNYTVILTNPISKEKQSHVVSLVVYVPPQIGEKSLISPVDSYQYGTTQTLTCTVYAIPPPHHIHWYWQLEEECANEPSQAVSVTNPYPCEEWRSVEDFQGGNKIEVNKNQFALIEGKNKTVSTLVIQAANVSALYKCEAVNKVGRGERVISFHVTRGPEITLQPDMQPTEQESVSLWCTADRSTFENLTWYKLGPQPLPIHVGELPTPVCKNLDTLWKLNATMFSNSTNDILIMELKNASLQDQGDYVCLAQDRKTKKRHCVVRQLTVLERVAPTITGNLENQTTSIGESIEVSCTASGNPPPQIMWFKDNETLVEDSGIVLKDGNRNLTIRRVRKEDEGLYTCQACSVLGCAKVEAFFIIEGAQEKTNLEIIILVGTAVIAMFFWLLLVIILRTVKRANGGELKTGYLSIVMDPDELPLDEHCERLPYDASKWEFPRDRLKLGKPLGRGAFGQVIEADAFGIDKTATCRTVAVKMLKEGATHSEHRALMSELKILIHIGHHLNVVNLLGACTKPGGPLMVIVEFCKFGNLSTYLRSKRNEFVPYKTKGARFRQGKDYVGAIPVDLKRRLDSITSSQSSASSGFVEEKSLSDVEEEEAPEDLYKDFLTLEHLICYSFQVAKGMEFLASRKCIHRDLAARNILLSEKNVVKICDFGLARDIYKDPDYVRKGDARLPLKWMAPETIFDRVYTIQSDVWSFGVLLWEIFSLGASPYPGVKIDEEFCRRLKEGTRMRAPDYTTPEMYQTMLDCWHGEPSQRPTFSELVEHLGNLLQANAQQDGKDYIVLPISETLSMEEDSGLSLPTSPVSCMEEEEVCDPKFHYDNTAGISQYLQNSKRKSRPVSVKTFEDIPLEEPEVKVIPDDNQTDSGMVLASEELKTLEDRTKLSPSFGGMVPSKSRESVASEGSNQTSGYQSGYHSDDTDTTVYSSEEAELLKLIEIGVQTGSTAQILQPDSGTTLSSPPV
For data set [34], the system named is NCI-H1975. The data set can be described thus: Induction of apoptosis in human H1975 cells assessed as late apoptotic cells at 1 to 10 uM incubated for 48 hrs Annexin V-FITC staining based flow cytometric analysis. Format: functional, cell-based. The note with it: dose microM 1-10, time […].
Data set [35] deals with Epidermal growth factor receptor (Homo sapiens, UniProt P00533, T790M). The data set can be described thus: Inhibition of EGFR T790M mutant (unknown origin) using FAM-labelled peptide as substrate incubated for 10 mins fin presence of ATP by Kinase Glo luminescence assay.

Each structure is given as a SMILES string. Activity calls are given as the source filed them. The rule behind the calls is not given here. Some results are limits rather than exact numbers.

The inhibition is the change of the read-out against control, counted positive when it falls. The term IC50 denotes the concentration needed to halve the response being measured.

In the case of `C=CC(=O)Nc1cccc(Oc2nc(Nc3ccc(OC)cc3)nc3c2CSCC3)c1`, the inhibition is -1.2% in data set [1], 48.1% in the data set filed under Homo sapiens, 0.5% in [10] and 3.9% in data set [33]. Also, the Activity with A549 [2] stood at 14.2%; with NCI-H1975 [3], 3.76%; in the data set on NCI-H1975 [4], 78.76%; with NCI-H1975 [6], 0.58%; with A549 [11], 20.22%; with A549 [12], 71.16%. Moreover, the Activity with A549 [13] is 10.69%; in the data set with A549 [14], 8.62%; with A549 [15] it was 14.44%; with NCI-H1975 [16], 5.2%; in the data set on NCI-H1975 [17], 10.7%; in the data set on A549 [18], 23.23%. The Activity in the data set on A549 [20] was 74.87%; with NCI-H1975 [21], 15.46%; in the data set on A549 [22], “Dose-dependent effect”; in the data set with NCI-H1975 [23], 7.5%; with NCI-H1975 [24], 87.16%; in the data set with NCI-H1975 [25], 81.2%. The Activity with NCI-H1975 [27] was 8.23%; in the data set with A549 [28], 62.57%; in the data set with NCI-H1975 [30], 0.85%; with NCI-H1975 [32], 0.6%; with NCI-H1975 [34], “Dose-dependent effect”. In addition, in data set [5], the selectivity ratio at 72 h is more than 11.8. For the same compound, the result in the data set on NCI-H1975 [7], with NCI-H1975 [8] and in the data set with NCI-H1975 [9] was Active. The IC50 is 20.9 µM in the data set on HeLa; 11.7 µM with MCF7; more than 50 µM with L02; 2.19 µM in the data set on NCI-H1975 [19]; 132 nM in data set [26]; 4.22 µM in the data set on A549 [29]. The IC50 in data set [31] is more than 1000 nM; in data set [35], 542 nM.
In the case of `Oc1cccc(-c2nc(N3CCOCC3)c3oc4ncccc4c3n2)c1`, the results for the inhibition (in the data set listed under Homo sapiens; in data set [33]) were 99.8% and 2.4%, respectively.
On to `COc1cccc(Nc2nc3c(c(Oc4cccc(NC(=O)/C=C/C(C)C)c4)n2)CSCC3)c1`, for which the selectivity ratio at 72 h in data set [5] is more than 1.98. Also, the concentration for half-maximal inhibition (IC50) is more than 50 µM in the data set with HeLa; 21.8 µM with MCF7; more than 50 µM in the data set on L02; 25.1 µM in the data set on NCI-H1975 [19]; 25.3 µM with A549 [29].
For `CCC/C=C/C(=O)Nc1cccc(Oc2nc(Nc3cccc(OC)c3)nc3c2CSCC3)c1`, the selectivity ratio at 72 h in [5] is more than 4.23. Moreover, the IC50 was 33.8 µM in the data set with HeLa; 32 µM in the data set with MCF7; more than 50 µM with L02; 11.9 µM with NCI-H1975 [19]; 11.8 µM in the data set on A549 [29].
In the case of `C=C(F)C(=O)Nc1cccc(Oc2nc(Nc3ccn(C)n3)nc3c2CSCC3)c1`, the selectivity ratio at 72 h in data set [5] is less than 0.96. Besides, the half-inhibitory concentration (IC50) in the data set on HeLa is more than 50 µM; with MCF7, more than 50 µM; in the data set with L02 it was 47.8 µM; with NCI-H1975 [19], 36.3 µM; with A549 [29], more than 50 µM.
